# From patent US20160082133A1, “CHEMICAL EXCHANGE SATURATION TRANSFER (CEST) BASED MRI USING REPORTER GENES AND SUBSTRATES AND METHODS THEREOF” (The Johns Hopkins University, priority 2013, published 2016)
# How the values were obtained:
# HSV1-TK [1] = biological target: T1, HSV1-TK (Human herpesvirus 1, UniProt P0DTH5); assay type: in vivo, mice
# T1 construct: V5; expressed in transfected cells; host or cells: 9L rat glioma cells transfected with pcDNA3.1-HSV1-tk, single G418-selected clone, implanted in NOD-SCID mouse brain
# T1 sequence (P0DTH5 whole entry): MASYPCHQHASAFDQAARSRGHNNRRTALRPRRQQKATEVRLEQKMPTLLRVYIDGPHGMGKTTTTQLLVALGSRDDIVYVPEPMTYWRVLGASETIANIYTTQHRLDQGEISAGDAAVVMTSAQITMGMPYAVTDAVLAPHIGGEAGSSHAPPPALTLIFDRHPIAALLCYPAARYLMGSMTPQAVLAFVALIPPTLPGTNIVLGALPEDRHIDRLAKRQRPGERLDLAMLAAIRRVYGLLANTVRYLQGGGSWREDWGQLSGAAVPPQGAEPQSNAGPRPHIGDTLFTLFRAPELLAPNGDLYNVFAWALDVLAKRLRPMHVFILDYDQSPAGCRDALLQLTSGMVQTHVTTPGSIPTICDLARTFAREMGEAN
# Description: (§1) At the last time point of the experiment the full CEST-spectrum was acquired for each animal with the same parameters described in the Experimental Section (main text) except the followings: CEST-weighted images were acquired with a modified RARE pulse sequence (TR/TE=6000/35 ms), using a 213 Hz/4000 ms saturation pulse from −6 to +6 ppm around the water resonance, which was assigned to be at 0 ppm. Pixel-based B0 correction was used as described before (Kim, M. et al. Magn Reson Med 2009, 61, 1441) using the same parameters as above except for TR=1500 ms, B1/tsat=21 Hz/500 ms, with a sweep range from −1 to +1 ppm (0.1 ppm steps). Mean CEST spectra were plotted from an ROI for each tumor and normal brain tissue, after B0 correction. MTRasym=100×(S^−Δω−S^Δω)/S0 was computed at different offsets Δω.
# (§2) pcDNA3.1-HSV1-tk was used to transfect 9L rat glioma cells. A single clone was selected with 0.5 mg/mL G418 antibiotics. 9L^HSV1-tk and nontransfected wild type 9L cells (9L^wt) were inoculated (2×10^5 cells/2 μL saline) bilaterally into the striatum of adult NOD-SCID male mice to generate intracranial 9L tumors in both hemispheres.
# (§3) Data were acquired using a horizontal 11.7 T MRI scanner (Bruker, Biospec) equipped with a circular polarized MRI transceiver coil (i.d.=23 mm) Seven days after cell transplantation, mice were anesthetized with 1.5% isoflurane, and a series of […] CEST data sets were obtained at 1, 2, and 3 h following intravenous (iv) injection of 2 in saline (150 mg/kg body). CEST weighted images were acquired with a modified RARE pulse sequence (TR/TE=6000/35 ms), using a 213 Hz/4000 ms saturation pulse alternating between ±5 ppm frequency offsets from the water frequency. For each time point, the MTRasym map was calculated from four pairs of s−5 ppm/s+5 ppm using MATLAB (Mathworks). A single 1 mm slice with FOV of 1.6×1.6 cm^2 and a 128×48 matrix was used.
# HSV1-TK [2] = assay type: in vivo, mice; conditions: 3 h after iv injection, 150 mg/kg, 5 ppm, n=8
# Description: as §1, §2, §3
smiles,measurement,setting,value
"CC1(C)CN([C@H]2C[C@H](O)[C@@H](CO)O2)C(=O)NC1=O [Compound 2, 5-Methyl-5,6-dihydrothymidine]",average difference in ΔMTRasym between the two tumor types (full CEST spectrum),"HSV1-TK [1]; 5.0 ppm, last time point, N=8",approximately 0.77%
same,"normalized mean MTRasym values (ΔMTRasym), 9L^HSV1-tk tumor","HSV1-TK [1]; 3 h after iv injection, 150 mg/kg, 5 ppm, n=8",4.5±1.5
same,estimated intracellular concentration in 9L^HSV1-tk tumors,"HSV1-TK [1]; from calibration curve, in vivo",approximately 0.7 mM
same,"normalized mean MTRasym values (ΔMTRasym), 9L^wt tumor",HSV1-TK [2],2.0±1.7
